According to patent US5334595A, “Pyrazoloquinolones as anticancer agents” (priority 1992, dated 1994):
Where two headings read alike, the source gives them in different places. One block for each compound: values may come before it.

Experiments:
human topoisomerase II = target: T1, human topoisomerase II (Homo sapiens, UniProt P11388); assay: Mammalian topoisomerase II inhibition assay (topo II covalently attached to DNA, relative to mAMSA); type: biochemical; settings: read-out: topo II inh. EC50
T1 construct: Topo II was purified from late log phase suspension cultures of HeLa WIS; endogenous in cells; host or cells: HeLa WIS
Excerpt: The inhibition of human topoisomerase II (hereafter topo II) was quantitated by a procedure adapted from that described by Trask et al., EMBO J., 3, 671-676 (1984). The assay quantitates the amount of topo II covalently attached to DNA at equilibrium during a topo II reaction. This assay determines the potential of a compound to stabilize this complex, which potential is closely related to the cytotoxicity of the compound.
Topo II was purified from late log phase suspension cultures of HeLa WIS by an adaptation of the method described by Per et al., Mol. Pharmacol., 32, 17-25 (1987).
Assays (in duplicate) were assembled at 4° C. Assay mix (25 μl) was distributed in Beckman (No. 265270) 1.5 mL microtiter tubes followed by the addition of 5 μl test compound to yield the final concentrations of assay components:
The assay mix including the test compound was incubated for 20 minutes at 37° C. The reaction was terminated at 37° C. by the addition of 3 μl 10% SDS followed by the addition of 266 μl 10 mM Tris-Cl pH 7.5, 20 μg/ml BSA, 20 μg/ml calf thymus DNA, 1% SDS.
A SDS/protein precipitate was formed by the addition of 28 μl 2.5M KCl followed by chilling on ice for a minimum of 10 minutes. The precipitate was collected and washed with a Brandell cell harvester on a GFB glass fiber filter membrane as follows. The contents of the assay tube were drawn up into the harvester. The tube was then rinsed 7× with 10 mM Tris-Cl pH 7.5, 1 mM EDTA and 100 mM KCl. The precipitate was washed with 1 L of a solution of 10 mM Tris-Cl pH 7.5, 1 mMEDTA, 100 mM KCl followed by 1 L of 95% ethyl alcohol and finally 0.5 L 70% of ethyl alcohol (per 48 samples in each case). After drying, CPM was determined by liquid scintillation counting with 5 ml Biofluor (NEN Research Products) or Readisafe (Beckman Instruments Inc.) cocktail.
Preparation of test compound--A stock solution (6 mg/ml) of test compound was prepared either in 0.1N sodium hydroxide or 0.2N hydrogen chloride. This solution then was diluted 1/5 into water and serially thereafter in either 0.02N sodium hydroxide or 0.04N hydrogen chloride, respectively. The stock solution and serial dilution of the test compound was stored at -20° C. prior to testing.
Screening of test compound--As an initial screen, the test compound was tested at a final concentration of 2, 20 and 200 μg/ml. The compound was then retested at a range of concentrations (usually 2-3×steps) bridging their approximate EC50 's, as estimated by the prescreen.
Controls--A solvent control which indicates the base level of topo II-DNA complex formed in the absence of the test compound was included in each test. A control, in which topo II was omitted, was included for each test compound at the highest drug concentration tested.
Reference Agent--A dose response curve with mAMSA at 0.01, 0.08, 0.16, 0.32, 1.0 and 10 μg/ml was included in each test.
The maximal DNA-topo II complex formed is taken as that equal to that formed at the nearly saturating dose of mAMSA (10 μg/ml).

[1] = tested on: P388 murine leukemia cells; assay: In vitro cytotoxicity, one-hour exposure, clonogenic survival of P388 cells; type: cell-based; settings: Mus musculus, read-out: in vitro cytotoxicity IC50, 1 hr exp.; P388, 1 hr exposure
Protocol: (§1) In vitro cytotoxicity was assayed by determining cell survival following exposure of P388 murine leukemia cells to a range of test compound concentrations. Cytotoxicity was quantitated following either a one-hour exposure or continuous exposure of P388 cells to test compound.
(§2) A Manual of Basic Technique. […] Briefly, following drug exposure cells were plated in soft agar and incubated (37°, 5% CO2) for 7-10 days during which time viable cells form visible colonies. Cytotoxicity following continuous exposure of cells to test compound was assayed by quantitating total P388 cells on a Coultier Counter following a 48-hour co-incubation of test compound with cells. P388 cells were maintained in log phase throughout the duration of cytotoxicity assays.
(§3) The percentage of cells surviving relative to an untreated control was graphed as a function of increasing drug concentration.

[2] = In vivo antitumor assay, Panc03(sc); set-up: species or system mice; settings: mouse, in vivo, MTD
Excerpt: Mice: Inbred: C3H/He and NCR-nu; and Hybrids: B6D2F1 (C57BL/6 females×DBA/2 males, CD2F1 (Balb/c females×DBS/2 males) and B6C3fl (C57BL/6×C3H) were bred at Wayne State University from strains obtained from the Frederick Cancer Research Facility, Frederick, Maryland or purchased from commercial suppliers.
Tumors: Murine Tumor: P388 and an adriamycin-resistant (ADR) subline P388/ADR leukemia and the following transplantable solid tumors of mice were used for in vivo testing: B16 melanoma (B16), pancreatic ductal adenocarcinoma No. 03 (Pane 03), colon adenocarcinoma No. 38 (colo 38), lung carcinoma No. 12 (LC 12), mammary ductal adenocarcinoma No. 16/C (Mam16C) and an adriamycin-resistant subline Mam16C/ADR. Human tumor: A single human tumor, mammary carcinoma MX-1 was used for in vivo testing. All tumors are in the Developmental Therapeutics Program frozen tumor respository, maintained by the Biological Testing Branch, Frederick Maryland. Each has a detailed description, code identification number, and list of references at the National Tumor Repository. Murine tumors were maintained in the mouse strain of origin and were transplanted in the appropriate F1 hydrid (or the strain of origin) for therapy trials. Human mammary carcinoma MX-1 (MX1) was maintained as a subcutaneous implant in either athymic Swiss (Cr: NIH(S)-nu) or athymic random bred (NCR-nu) mice and transplanted in NCR-nu for therapy trials.
Chemotherapy: For pancreatic ductal adenocarcinoma No. 3, colon adenocarcinoma No. 38 (colo 38), lung carcinoma No. 12 LC 12) and both adriamycin-sensitive (RP) and-resistant (ADR) mammary ductal adenocarcinoma No. 16 (Mam16) tumors, bilateral tumor implants were used to help ensure a more uniform tumor burden per mouse (thus reducing the requirement for greater numbers of mice per group). The animals necessary to begin an experiment were pooled, implanted bilaterally s.c. on day zero with 30-60 mg tumor fragments using a 12-gauge trocar, and again pooled before randomization to the various treatment and control groups. Chemotherapy was started within three days after tumor implantation while the number of cells per mouse was relatively small (1×10^7 -1×10^8 cells).
Quantitative end points used to assess antitumor activity included % Increased Life Span (% ILS), Tumor Cell Kill (Log10 kill), and Tumor Growth Inhibition (T/C). Long Term Survivors (45 or 60 day) were excluded from calculations of %ILS and Tumor Cell Kill.
The log10 cell kill was calculated from the following formula: [formula] where T-C is the tumor difference in the median day of death between the treated (T) and the control (C) groups and Td is the tumor doubling time (in days), the latter estimated from the best fit straight line from a log-linear growth plot of the control-group tumors in exponential growth. The conversion of the T-C values to log10 cell kill is possible because the Td for tumors regrowing post-treatment approximated the Td values of the tumors in untreated control mice.
Tumors were measured with a caliper once or twice weekly (as needed) until either tumors exceeded 1600 mg or cure was assured. Tumor weights were estimated from two-dimensional measurements: Tumor Weight (mg)=(a×b^2) / 2, where a and b are the tumor length and width (ram) respectively. Measurements were carried out simultaneously in both treatment and control groups. When the control group tumors reached approximately 750-1500 mg in size (median of group), the median tumor weight of each group was determined (including zeros). The T/C value in percent is an indication of antitumor effectiveness. The % T/C was calculated from the following formula for solid murine tumor models: [formula] where T and C are median tumor weights of the treatment and control groups, respectively. A T/C equal to or less than 42% is considered significant antitumor activity. […]

[3] = tested on: P388 murine leukemia cells; assay: In vitro cytotoxicity, continuous (48-hour) exposure of P388 cells; type: cell-based; settings: Mus musculus; P388, continuous exposure (48-hour); read-out: in vitro cytotoxicity IC50, cont. exp.
Protocol: as §1, §2, §3

[4] = conc. achieving 50% of maximal effect of mAMSA, topo II from HeLa cells

T1 sequence (P11388 whole entry): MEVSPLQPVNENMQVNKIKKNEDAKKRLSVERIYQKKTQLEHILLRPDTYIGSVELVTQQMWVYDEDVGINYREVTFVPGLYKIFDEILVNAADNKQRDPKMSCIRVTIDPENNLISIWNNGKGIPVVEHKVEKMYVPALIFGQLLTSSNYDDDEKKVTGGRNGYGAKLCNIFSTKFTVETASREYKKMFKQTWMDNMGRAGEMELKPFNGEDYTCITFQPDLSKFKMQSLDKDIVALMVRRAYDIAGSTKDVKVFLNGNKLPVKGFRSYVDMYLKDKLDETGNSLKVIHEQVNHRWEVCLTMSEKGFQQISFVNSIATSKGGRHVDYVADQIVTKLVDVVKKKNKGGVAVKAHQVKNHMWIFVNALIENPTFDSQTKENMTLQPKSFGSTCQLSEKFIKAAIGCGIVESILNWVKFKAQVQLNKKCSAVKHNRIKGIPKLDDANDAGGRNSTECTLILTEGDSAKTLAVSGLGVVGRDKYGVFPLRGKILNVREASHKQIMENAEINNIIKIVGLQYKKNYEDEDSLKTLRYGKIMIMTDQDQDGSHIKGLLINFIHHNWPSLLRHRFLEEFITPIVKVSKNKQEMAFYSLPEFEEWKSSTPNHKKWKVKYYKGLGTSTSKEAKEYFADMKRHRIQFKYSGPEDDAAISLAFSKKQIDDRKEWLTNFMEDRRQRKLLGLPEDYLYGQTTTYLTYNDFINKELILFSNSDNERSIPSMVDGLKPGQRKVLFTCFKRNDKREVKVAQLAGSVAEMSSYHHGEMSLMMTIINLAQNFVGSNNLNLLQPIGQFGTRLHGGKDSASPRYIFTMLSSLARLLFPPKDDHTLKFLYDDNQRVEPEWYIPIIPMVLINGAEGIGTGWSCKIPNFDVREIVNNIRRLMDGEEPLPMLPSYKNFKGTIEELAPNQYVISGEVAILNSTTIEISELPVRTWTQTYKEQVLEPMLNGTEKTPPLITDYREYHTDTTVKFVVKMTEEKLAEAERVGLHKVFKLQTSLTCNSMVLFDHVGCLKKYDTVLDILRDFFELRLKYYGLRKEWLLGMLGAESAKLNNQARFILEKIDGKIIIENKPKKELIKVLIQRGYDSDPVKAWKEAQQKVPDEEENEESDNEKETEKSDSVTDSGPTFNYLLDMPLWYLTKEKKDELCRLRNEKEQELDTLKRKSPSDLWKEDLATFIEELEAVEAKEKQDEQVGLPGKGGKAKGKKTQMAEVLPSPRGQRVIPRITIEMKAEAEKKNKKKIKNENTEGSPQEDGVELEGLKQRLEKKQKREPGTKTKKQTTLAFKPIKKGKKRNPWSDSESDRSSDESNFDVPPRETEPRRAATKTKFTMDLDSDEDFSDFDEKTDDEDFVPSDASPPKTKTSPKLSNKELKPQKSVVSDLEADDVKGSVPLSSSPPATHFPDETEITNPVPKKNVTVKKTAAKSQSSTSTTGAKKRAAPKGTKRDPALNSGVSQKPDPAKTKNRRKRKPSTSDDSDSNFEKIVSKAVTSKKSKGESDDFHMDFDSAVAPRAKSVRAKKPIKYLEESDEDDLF

- EC50 (human topoisomerase II; [4]): 900 nM
Structure (SMILES): Cc1cc(-c2c(F)cc3c4nn(C5CCCCC5)c(=O)c-4cn(C4CC4)c3c2F)cc(C)n1 [Example 40]
- IC50 [1]: 680 nM
- IC50 [3]: 190 nM

- EC50 (human topoisomerase II; [4]): 4000 nM
Structure (SMILES): Cc1cc(-c2c(F)cc3c4nn(C5CCCC5)c(=O)c-4cn(C4CC4)c3c2F)cc(C)n1 [Example 41]
- IC50 [1]: 1100 nM
- IC50 [3]: 380 nM

- EC50 (human topoisomerase II; [4]): 2900 nM
Structure (SMILES): Cc1cc(-c2c(F)cc3c4nn(C5CCCCCC5)c(=O)c-4cn(C4CC4)c3c2F)cc(C)n1 [Example 42]
- IC50 [1]: 4200 nM
- IC50 [3]: 1500 nM

- EC50 (human topoisomerase II; [4]): 1700 nM
Structure (SMILES): Cc1cc(-c2c(F)cc3c4nn(C5CCOCC5)c(=O)c-4cn(C4CC4)c3c2F)cc(C)n1 [Example 46]
- IC50 [1]: 290 nM
- IC50 [3]: 250 nM

- EC50 (human topoisomerase II; [4]): 5600 nM
Structure (SMILES): Cc1cc(-c2c(F)cc3c4nn(C5CCNCC5)c(=O)c-4cn(C4CC4)c3c2F)cc(C)n1 [Example 49]
- IC50 [1]: 2300 nM
- IC50 [3]: 2500 nM

- EC50 (human topoisomerase II; [4]): 1500 nM
Structure (SMILES): Cc1cc(-c2c(F)cc3c4nn([C@H]5CC[C@H](NC=O)CC5)c(=O)c-4cn(C4CC4)c3c2F)cc(C)n1 [Example 58, 2-(trans-4-formamidocyclohexyl)-5-cyclopropyl-6,8-difluoro-2,5-dihydro-7-(2,6-dimethyl-4-pyridinyl)-3H-pyrazolo[4,3-c]quinolin-3-one]
- IC50 [1]: 9100 nM

The remaining lines, values behind:

Structure (SMILES): Cc1cc(-c2c(F)cc3c4n[nH]c(=O)c-4cn(C4CC4)c3c2F)cc(C)n1 [Example 6]
- EC50 (human topoisomerase II; [4]): 11000 nM
- IC50 [1]: 7900 nM
- MTD ([2]; sc): > 2500 mg/kg
- IC50 [3]: 3600 nM

Structure (SMILES): CCN(CC)CCCn1nc2c3cc(F)c(-c4cc(C)nc(C)c4)c(F)c3n(C3CC3)cc-2c1=O [Example 16]
- EC50 (human topoisomerase II; [4]): 6000 nM
- IC50 [1]: 490 nM
- IC50 [3]: 1200 nM

Structure (SMILES): Cc1cc(-c2c(F)cc3c4nn(CCN5CCCC5)c(=O)c-4cn(C4CC4)c3c2F)cc(C)n1 [Example 18]
- EC50 (human topoisomerase II): 650000 nM
- IC50 [1]: 300 nM
- IC50 [3]: 35 nM

Structure (SMILES): Cc1cc(-c2c(F)cc3c4nn(CCN5CCOCC5)c(=O)c-4cn(C4CC4)c3c2F)cc(C)n1 [Example 20]
- EC50 (human topoisomerase II; [4]): 48000 nM
- IC50 [1]: 2800 nM
- IC50 [3]: 410 nM

Structure (SMILES): Cc1cc(-c2c(F)cc3c4nn(CCC5CCCN5C)c(=O)c-4cn(C4CC4)c3c2F)cc(C)n1 (centres unmarked) [Example 21]
- EC50 (human topoisomerase II; [4]): 3500 nM
- IC50 [1]: 330 nM
- MTD ([2]; iv): 80 mg/kg
- IC50 [3]: 160 nM

Structure (SMILES): Cc1cc(-c2c(F)cc3c4nn(-c5ccccc5)c(=O)c-4cn(C4CC4)c3c2F)cc(C)n1 [Example 22]
- EC50 (human topoisomerase II; [4]): 2700 nM
- MTD ([2]; sc): 635 mg/kg
- IC50 [3]: 840 nM

Structure (SMILES): COc1ccc(-n2nc3c4cc(F)c(-c5cc(C)nc(C)c5)c(F)c4n(C4CC4)cc-3c2=O)cc1 [Example 23]
- EC50 (human topoisomerase II; footnote c: bell-shaped dose response curve noted, 50% of maximal effect of mAMSA): 6800 nM
- MTD ([2]; iv): 140 mg/kg
- MTD ([2]; sc): 1150 mg/kg
- IC50 [3]: 5200 nM

Structure (SMILES): Cc1cc(-c2c(F)cc3c4nn(CC5CCCCC5)c(=O)c-4cn(C4CC4)c3c2F)cc(C)n1 [Example 43]
- EC50 (human topoisomerase II; [4]): 8200 nM
- IC50 [1]: 6700 nM
- IC50 [3]: 4900 nM

Structure (SMILES): Cc1cc(-c2c(F)cc3c4nn(C5CCN(C)CC5)c(=O)c-4cn(C4CC4)c3c2F)cc(C)n1 [Example 50]
- EC50 (human topoisomerase II; [4]): 3200 nM
- IC50 [1]: 94 nM
- MTD ([2]; iv): 128 mg/kg

Structure (SMILES): Cc1cc(-c2c(F)cc3c4nn(CCCCN(C)C)c(=O)c-4cn(C4CC4)c3c2F)cc(C)n1 [Example 54, 5-Cyclopropyl-6,8-difluoro-2,5-dihydro-2-[4-(dimethylamino)-butyl]-7-(2,6-dimethyl-4-pyridinyl) -3H-pyrazolo[4,3-c]quinolin-3-one]
- EC50 (human topoisomerase II; [4]): 15000 nM
- IC50 [1]: 400 nM
- IC50 [3]: 500 nM

Structure (SMILES): Cc1cc(-c2c(F)cc3c4nn(CCNC(C)(CO)CO)c(=O)c-4cn(C4CC4)c3c2F)cc(C)n1 [Example 55]
- EC50 (human topoisomerase II; [4]): 11000 nM
- IC50 [1]: 11000 nM
- IC50 [3]: 25000 nM

Structure (SMILES): Cc1cc(-c2c(F)cc3c4nn([C@H]5CC[C@H](N)CC5)c(=O)c-4cn(C4CC4)c3c2F)cc(C)n1 [Example 56b, 2-(trans-4-aminocyclohexyl)-5-cyclopropyl-6,8-difluoro-2,5 dihydro-7-(2,6-dimethyl-4-pyridinyl)-3H-pyrazolo[4,3-c]quinolin-3-one]
- EC50 (human topoisomerase II; [4]): 4200 nM
- IC50 [1]: 1500 nM
- MTD [2]: 550 mg/kg
